# Results from patent US12070467B2, “Method of treating ciliated tissue using CSA micelles” (Brigham Young University, priority 2018, dated 2024).
# “And” between values parts separate entries of the source, which are not always exact repeats. Equal entries are not always repeated. Where two headings read alike, the source gives them in different places.
# Assays:
# [1] = tested on: cilia on porcine trachea explants; settings: for Number of explants (out of 12) clearing beads, <10 min / Number of explants (out of 12) clearing beads, <20 min / Number of explants (out of 12) clearing beads, <30 min / Number of explants (out of 12), No Clearance: CSA-131 100 μg/mL for 1 h; for Number of explants (out of 12) clearing beads, <20 min: between 10 and 20 min; for Number of explants (out of 12) clearing beads, <30 min: between 20 and 30 min; for Number of explants (out of 12), No Clearance: no clearance (>30 min)
# Description: In this example, the effect of CSA compositions with and without micelles was tested using ciliated porcine lung tissue. […] An ex vivo assay was used to evaluate pluronic-containing formulations, and in this assay the beating of cilia can be actively observed. […] This method involves sectioning porcine trachea, supported in a nutrient medium, placing small beads on one side of the explant, and measuring the transfer (clearance) of the beads to the other side of the explants (FIG. 5). […] Twelve explants were used for each test condition, and the results are reported as the number clearing beads in a given amount of time.
# Normal healthy porcine trachea and lung tissue was excised very fresh from slaughter. After aseptic collection, whole tissues were transported in a 1:1 mixture of Dulbecco's modified Eagle's medium (DMEM) and RPMI, which was pre-warmed and supplemented with penicillin-streptomycin-glutamine 100× (Hyclone, Logan, UT, USA). Explants were washed by tissue immersion three to four times in warm, fresh DMEM/RPMI media. Explants were maintained by continuous immersion in DMEM/RPMI media in a 5% CO2-95% air mixture in a humidified incubator at 37° C.
# Tracheas were washed and extra exterior tissues to the cartilage were removed. Tracheas were opened and cut into approximately 2×1 cm explants consisting of the respiratory mucosa and underlying cartilage. […] Explants were then placed on small circular filter papers, which were placed on top of 1% agarose gel plugs bathed in medium in 6-well plates. […] Five microliters of a suspension of 1 μm diameter polystyrene microsphere beads (Polysciences, Inc., Warrington, PA, USA) were pipetted on one edge of epithelial surfaces and evaluated for their complete clearance (movement) across the surface with categorization of clearance in under 10 min, between 10 and 20 min, between 20 and 30 min, and no clearance (>30 min). Independent replicates were completed for each time point. Outcomes were then counted and a percentage of clearance was determined.
# [2] = tested on: S. aureus ATCC 25923 biofilm; assay: Minimum biofilm eradication concentration (MBEC); format: cell-based, Staphylococcus aureus; settings: 48 h biofilm, 24 h treatment
# Description: (§1) Staphylococcus aureus (ATCC 25923) and Pseudomonas aeruginosa (ATCC 47085 (PA01)) were grown from fresh colonies in trypticase soy broth (TSB) and incubated overnight at 37° C. Fungal cultures, Candida albicans (ATCC 90028) and Candida auris (CDC 0382, 0384, 0387, and 0389), were grown overnight in sabouraud dextrose broth (SDB) or Roswell Park Memorial Institute medium (RPMI). Cultures of bacteria and fungi were centrifuged, and pellets were washed three times with phosphate buffered saline (PBS) and further resuspended in fresh PBS. Bacterial cultures were diluted in TSB and fungal cultures were diluted in SDB or RPMI to […] or 10^6 CFU/mL (optical density (OD) readings at 600 nm).
# (§2) Inocula (10^6 CFU/mL) of bacterial and fungal strains (P. aeruginosa, S. aureus, C. albicans, and C. auris) were incubated at 37° C. for 48 h in 1 mL of TSB or SDB in 96-well plates. Following incubation, the growth medium was gently removed, and wells were washed three times with sterile PBS. […] Wells, including well edges, were scraped thoroughly with a plastic spatula. Well contents were removed in 1 mL of neutralizing broth (Dey-Engley, Sigma-Aldrich) and placed in a sonicating water bath (Fisher Scientific FS60, 42 kHz, 100 W, Pittsburgh, PA, USA) to disrupt biofilms. […] After 24 h or 48 h of incubation at 37° C., colonies were counted and MBECs were determined. […]
# [3] = tested on: P. aeruginosa ATCC 47085 biofilm; assay: Minimum biofilm eradication concentration (MBEC); format: cell-based, Pseudomonas aeruginosa; settings: 48 h biofilm, 24 h treatment
# Description: as §1, §2
# C. auris CDC 387 = assay: Minimum inhibitory concentration (MIC), broth microdilution; format: cell-based, Candida auris; settings: 37° C., 18-20 h
# Description: as §1
# (§3) Minimum inhibitory concentrations (MICs) were measured using the broth microdilution protocol described by the Clinical and Laboratory Standards Institute. […] Aliquots (100 μL) of a prepared inoculum (10^6 CFU/mL for bacteria and […] CFU/mL for fungi) were added, and plates were incubated at 37° C. for 18-20 h. Bacterial or fungal growth was visually observed to determine the MICs. Negative and positive controls were included for each set of MIC measurements. For studies with pluronic, the surfactant was added at 4% and 5% to the initial inocula in each experiment. Measurements were performed in triplicate for all susceptibility tests.
# C. auris CDC 382 = assay: as above; format: cell-based, Candida auris; settings: 37° C., 18-20 h
# Description: as §1, §3
# C. auris CDC 389 = assay: as above; format: cell-based, Candida auris; settings: 37° C., 18-20 h
# Description: as §1, §3
# C. auris CDC 384 = assay: as above; format: cell-based, Candida auris; settings: 37° C., 18-20 h
# Description: as §1, §3
# C. albicans ATCC 90028 = assay: as above; format: cell-based, Candida albicans; settings: 37° C., 18-20 h
# Description: as §1, §3
# [4] = tested on: C. albicans (ATCC 90028) and C. auris (CDC 384) in trachea and lung explants; assay: Ex vivo antifungal efficacy in porcine trachea and lung explants (FIGS. 7A, 7B); format: cell-based, Candida albicans, Candida auris; settings: 24 h
# Description: Using 5 mm^3 explant cubes of porcine trachea and lung, ex vivo antifungal efficacy experiments were conducted. Cubes were dissected using a sterile razor blade form the ventral surface of the left caudal lobe of three sets of porcine lungs. After trimming excess tissues away from the explants to produce uniform of size (5 mm), explants were incubated at 37° C. in DMEM/RPMI inoculated with 10^6 CFU/explant of C. auris (CDC 0384) or C. albicans (ATCC 90028) in a 48-well plate. […] Treated explants were incubated for 24 h at 37° C. After incubation, tissues were suspended in 250 μL of neutralizing broth and vortex on the highest setting for 4 min. Samples were then serially diluted in PBS, plated on 5% sheep blood TSA plates, and incubated at 37° C. for 48 h.
# FIGS. 7A and 7B are bar graphs comparing the antifungal activity of CSA compositions with and without micelles on fungi, and against a control without any CSA. White bars shown remaining C. albicans (ATCC 90028); black bars show remaining C. auris (CDC 384).
# S. aureus ATCC 25923 = assay: Minimum inhibitory concentration (MIC), broth microdilution; format: cell-based, Staphylococcus aureus; settings: 37° C., 18-20 h
# Description: as §1, §3
# C. auris CDC 382 biofilm = assay: Minimum biofilm eradication concentration (MBEC); format: cell-based, Candida auris; settings: 48 h biofilm, 24 h treatment
# Description: as §1
# (§4) Inocula (10^6 CFU/mL) of bacterial and fungal strains (P. aeruginosa, S. aureus, C. albicans, and C. auris) were incubated at 37° C. for 48 h in 1 mL of TSB or SDB in 96-well plates. Following incubation, the growth medium was gently removed, and wells were washed three times with sterile PBS. […] Wells, including well edges, were scraped thoroughly with a plastic spatula. Well contents were removed in 1 mL of neutralizing broth (Dey-Engley, Sigma-Aldrich) and placed in a sonicating water bath (Fisher Scientific FS60, 42 kHz, 100 W, Pittsburgh, PA, USA) to disrupt biofilms. After 15 min, the resulting samples were serially diluted, and bacterial samples were plated on TSA while fungal samples were plated on SDA. After 24 h or 48 h of incubation at 37° C., colonies were counted and MBECs were determined. The minimum biofilm eradication concentration (MBEC) was defined as the lowest concentration of antibiotic that prevented bacterial regrowth.
# C. auris CDC 387 biofilm = assay: Minimum biofilm eradication concentration (MBEC); format: cell-based, Candida auris; settings: 48 h biofilm, 24 h treatment
# Description: as §1, §4
# C. auris CDC 384 biofilm = assay: Minimum biofilm eradication concentration (MBEC); format: cell-based, Candida auris; settings: 48 h biofilm, 24 h treatment
# Description: as §1, §4
# C. auris CDC 389 biofilm = assay: Minimum biofilm eradication concentration (MBEC); format: cell-based, Candida auris; settings: 48 h biofilm, 24 h treatment
# Description: as §1, §4
structure (smiles),measurement,setting,value
CCCCCCCCCCCCNCCC[C@@H](C)[C@H]1CC[C@H]2[C@@H]3[C@H](OCCCN)C[C@@H]4C[C@H](OCCCN)CC[C@]4(C)[C@H]3C[C@H](OCCCN)[C@]12C.Cl.Cl.Cl.Cl [CSA-131],"Number of explants (out of 12) clearing beads, <10 min",[1]; 0% pluronic,3/12
same,"Number of explants (out of 12) clearing beads, <20 min",[1]; 0% pluronic,2/12
same,"Number of explants (out of 12) clearing beads, <30 min",[1]; 0% pluronic,1/12
same,"Number of explants (out of 12), No Clearance",[1]; 0% pluronic,six of 12 and 6/12
same,"Number of explants (out of 12) clearing beads, <10 min",[1]; 1% pluronic,4/12
same,"Number of explants (out of 12) clearing beads, <20 min",[1]; 1% pluronic,2/12
same,"Number of explants (out of 12) clearing beads, <30 min",[1]; 1% pluronic,1/12
same,"Number of explants (out of 12), No Clearance",[1]; 1% pluronic,5/12
same,"Number of explants (out of 12) clearing beads, <10 min",[1]; 2% pluronic,7/12
same,"Number of explants (out of 12) clearing beads, <20 min",[1]; 2% pluronic,3/12
same,"Number of explants (out of 12) clearing beads, <30 min",[1]; 2% pluronic,2/12
same,"Number of explants (out of 12) clearing beads, <10 min",[1]; 3% pluronic,7/12
same,"Number of explants (out of 12) clearing beads, <20 min",[1]; 3% pluronic,4/12
same,"Number of explants (out of 12) clearing beads, <30 min",[1]; 3% pluronic,1/12
same,"Number of explants (out of 12) clearing beads, <10 min",[1]; 4% pluronic,8/12
same,"Number of explants (out of 12) clearing beads, <20 min",[1]; 4% pluronic,4/12
same,"Number of explants (out of 12) clearing beads, <10 min",[1]; 5% pluronic,10/12
same,"Number of explants (out of 12) clearing beads, <20 min",[1]; 5% pluronic,2/12
same,Influence on bead clearance,[1]; CSA-131 100 μg/mL with pluronic (4%),did not influence bead clearance
same,Bead clearance / ciliary activity compared with the control,"[1]; CSA-131 100 μg/mL, 5% pluronic",the same as the control
same,MBEC,[2],100 µg/mL
same,MBEC,[3],100 µg/mL
same,MIC,C. auris CDC 387,0.5 µg/mL
same,MIC,C. auris CDC 382,0.5 µg/mL
same,MIC,C. auris CDC 389,0.5 µg/mL
same,MIC,C. auris CDC 384,0.5 µg/mL
same,MIC,C. albicans ATCC 90028,0.5 µg/mL
same,Decrease of fungal counts in treated explants vs control explants,[4]; CSA-131 alone,up to 99%
same,Decrease of fungal counts in treated explants vs control explants,"[4]; CSA-131 alone, p<0.05 vs controls",one and a half to two
same,Decrease of fungal counts in treated explants vs control explants,[4]; CSA-131 with pluronic 4%,up to 99%
same,Decrease of fungal counts in treated explants vs control explants,"[4]; CSA-131 with pluronic 4%, p<0.05 vs controls",one and a half to two
same,Decrease of fungal counts in treated explants vs control explants,[4]; CSA-131 with pluronic 5%,up to 99%
same,Decrease of fungal counts in treated explants vs control explants,"[4]; CSA-131 with pluronic 5%, p<0.05 vs controls",one and a half to two
same,MIC,S. aureus ATCC 25923,1 µg/mL
same,MBEC,C. auris CDC 382 biofilm,82 µg/mL
same,MBEC,C. auris CDC 387 biofilm,64 µg/mL
same,MBEC,C. auris CDC 384 biofilm,48 µg/mL
same,MBEC,C. auris CDC 389 biofilm,48 µg/mL
